The target in assay [1] is T1, Dual specificity tyrosine-phosphorylation-regulated kinase 4 (Homo sapiens, UniProt Q9NR20).
T1 sequence (Q9NR20 whole entry): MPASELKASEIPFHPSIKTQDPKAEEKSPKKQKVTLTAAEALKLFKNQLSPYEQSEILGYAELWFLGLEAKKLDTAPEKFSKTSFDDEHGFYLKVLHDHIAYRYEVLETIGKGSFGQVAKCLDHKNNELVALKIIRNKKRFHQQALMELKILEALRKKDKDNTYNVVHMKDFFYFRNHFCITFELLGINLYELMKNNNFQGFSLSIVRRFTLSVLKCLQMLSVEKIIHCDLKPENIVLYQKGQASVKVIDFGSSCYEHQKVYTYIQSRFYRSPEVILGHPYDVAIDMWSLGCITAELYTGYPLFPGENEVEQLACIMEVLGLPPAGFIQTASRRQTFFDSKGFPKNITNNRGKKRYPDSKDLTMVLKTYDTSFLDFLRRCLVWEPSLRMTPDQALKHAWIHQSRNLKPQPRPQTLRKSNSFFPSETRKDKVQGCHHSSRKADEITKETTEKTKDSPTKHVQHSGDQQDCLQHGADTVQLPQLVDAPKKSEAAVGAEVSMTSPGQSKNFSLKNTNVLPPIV

In assay [2] the target is Cyclin-dependent kinase 5/CDK5 activator 1 (Homo sapiens, UniProt Q00535). The format is cell-based, Sf9.
Chain of Cyclin-dependent kinase 5/CDK5 activator 1 (Q00535 whole entry): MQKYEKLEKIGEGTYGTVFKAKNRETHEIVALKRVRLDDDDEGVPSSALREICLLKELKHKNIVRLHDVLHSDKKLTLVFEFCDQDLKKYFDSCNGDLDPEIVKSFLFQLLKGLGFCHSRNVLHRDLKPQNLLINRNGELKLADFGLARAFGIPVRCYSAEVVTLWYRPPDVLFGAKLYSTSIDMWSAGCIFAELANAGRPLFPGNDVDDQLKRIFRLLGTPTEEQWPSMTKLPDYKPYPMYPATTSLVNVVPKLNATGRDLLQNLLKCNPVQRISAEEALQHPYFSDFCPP
Chain of Cyclin-dependent kinase 5/CDK5 activator 1 (Q15078 whole entry, further chain): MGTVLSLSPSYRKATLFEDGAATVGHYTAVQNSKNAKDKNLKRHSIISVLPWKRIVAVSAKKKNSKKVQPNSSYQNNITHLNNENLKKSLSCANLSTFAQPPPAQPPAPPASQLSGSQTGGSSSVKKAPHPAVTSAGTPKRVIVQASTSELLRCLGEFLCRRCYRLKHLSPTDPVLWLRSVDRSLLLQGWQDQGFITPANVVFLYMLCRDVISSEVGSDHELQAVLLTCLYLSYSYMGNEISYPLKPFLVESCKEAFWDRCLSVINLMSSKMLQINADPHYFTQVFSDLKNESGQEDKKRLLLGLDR
In assay [3] the target is Dual specificity protein kinase CLK2 (Homo sapiens, UniProt P49760).
Chain of Dual specificity protein kinase CLK2 (P49760 whole entry): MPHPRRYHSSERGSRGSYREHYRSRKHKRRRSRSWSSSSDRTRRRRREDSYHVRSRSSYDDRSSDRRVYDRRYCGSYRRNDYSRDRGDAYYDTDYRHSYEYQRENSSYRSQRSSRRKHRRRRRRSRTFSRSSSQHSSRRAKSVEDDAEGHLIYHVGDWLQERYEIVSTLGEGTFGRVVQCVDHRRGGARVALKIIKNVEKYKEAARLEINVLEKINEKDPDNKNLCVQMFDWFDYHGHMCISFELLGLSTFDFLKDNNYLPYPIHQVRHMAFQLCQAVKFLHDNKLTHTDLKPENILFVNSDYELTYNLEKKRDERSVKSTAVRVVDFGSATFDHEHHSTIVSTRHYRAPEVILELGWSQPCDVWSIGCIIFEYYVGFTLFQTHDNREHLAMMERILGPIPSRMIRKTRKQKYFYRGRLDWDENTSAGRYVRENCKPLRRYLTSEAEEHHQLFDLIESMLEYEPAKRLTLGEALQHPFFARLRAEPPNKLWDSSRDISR
In assay [4] the target is Dual specificity protein kinase CLK3 (Homo sapiens, UniProt P49761). It is filed as cell-based, Sf9.
Chain of Dual specificity protein kinase CLK3 (P49761 whole entry): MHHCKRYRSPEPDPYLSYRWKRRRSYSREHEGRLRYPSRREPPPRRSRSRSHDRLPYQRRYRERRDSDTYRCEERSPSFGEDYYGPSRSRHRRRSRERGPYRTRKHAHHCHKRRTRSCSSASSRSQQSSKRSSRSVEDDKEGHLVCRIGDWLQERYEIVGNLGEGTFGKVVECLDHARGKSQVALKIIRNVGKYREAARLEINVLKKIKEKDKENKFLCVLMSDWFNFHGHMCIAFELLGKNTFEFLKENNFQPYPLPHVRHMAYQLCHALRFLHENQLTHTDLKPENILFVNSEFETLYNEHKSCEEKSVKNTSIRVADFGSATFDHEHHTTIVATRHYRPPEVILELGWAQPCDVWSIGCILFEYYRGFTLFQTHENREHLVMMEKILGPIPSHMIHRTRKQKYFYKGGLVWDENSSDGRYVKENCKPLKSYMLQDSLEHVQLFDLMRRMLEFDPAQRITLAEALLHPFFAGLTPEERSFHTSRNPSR
The target of assay [5] is Glycogen synthase kinase-3 beta (Homo sapiens, UniProt P49841). The format is cell-based, Sf9.
Chain of Glycogen synthase kinase-3 beta (P49841 whole entry): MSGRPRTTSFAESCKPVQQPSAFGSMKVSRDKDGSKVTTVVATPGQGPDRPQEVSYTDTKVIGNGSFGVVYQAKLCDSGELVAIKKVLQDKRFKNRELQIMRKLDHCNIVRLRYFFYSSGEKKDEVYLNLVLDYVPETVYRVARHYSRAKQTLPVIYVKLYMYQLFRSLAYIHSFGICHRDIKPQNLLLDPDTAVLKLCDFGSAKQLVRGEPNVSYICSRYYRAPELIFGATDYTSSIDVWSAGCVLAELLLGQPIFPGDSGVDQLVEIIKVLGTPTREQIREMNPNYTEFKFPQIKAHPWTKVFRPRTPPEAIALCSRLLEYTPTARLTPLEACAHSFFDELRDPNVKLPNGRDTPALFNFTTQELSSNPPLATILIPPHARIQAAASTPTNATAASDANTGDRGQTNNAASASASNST
In assay [6] the target is T2, Dual specificity tyrosine-phosphorylation-regulated kinase 2 (Homo sapiens, UniProt Q92630).
T2 sequence (Q92630 whole entry): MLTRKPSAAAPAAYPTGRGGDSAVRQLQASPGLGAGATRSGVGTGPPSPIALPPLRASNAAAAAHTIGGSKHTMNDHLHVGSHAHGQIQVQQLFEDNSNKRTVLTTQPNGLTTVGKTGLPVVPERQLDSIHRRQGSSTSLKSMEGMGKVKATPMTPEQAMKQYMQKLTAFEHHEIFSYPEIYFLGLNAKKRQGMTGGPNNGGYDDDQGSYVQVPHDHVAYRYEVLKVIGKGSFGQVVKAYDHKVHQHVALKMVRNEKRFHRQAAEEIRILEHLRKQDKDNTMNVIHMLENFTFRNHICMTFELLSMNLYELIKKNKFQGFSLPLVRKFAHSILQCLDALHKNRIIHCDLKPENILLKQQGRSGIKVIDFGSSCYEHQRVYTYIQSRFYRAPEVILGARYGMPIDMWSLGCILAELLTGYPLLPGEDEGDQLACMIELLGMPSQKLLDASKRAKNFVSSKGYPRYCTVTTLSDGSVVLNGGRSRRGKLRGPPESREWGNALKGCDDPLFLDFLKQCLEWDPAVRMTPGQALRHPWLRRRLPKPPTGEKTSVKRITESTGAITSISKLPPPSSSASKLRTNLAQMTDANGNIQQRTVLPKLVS

For assay [7], the target named is Casein kinase I isoform epsilon (Homo sapiens, UniProt P49674).
Chain of Casein kinase I isoform epsilon (P49674 whole entry, canonical isoform): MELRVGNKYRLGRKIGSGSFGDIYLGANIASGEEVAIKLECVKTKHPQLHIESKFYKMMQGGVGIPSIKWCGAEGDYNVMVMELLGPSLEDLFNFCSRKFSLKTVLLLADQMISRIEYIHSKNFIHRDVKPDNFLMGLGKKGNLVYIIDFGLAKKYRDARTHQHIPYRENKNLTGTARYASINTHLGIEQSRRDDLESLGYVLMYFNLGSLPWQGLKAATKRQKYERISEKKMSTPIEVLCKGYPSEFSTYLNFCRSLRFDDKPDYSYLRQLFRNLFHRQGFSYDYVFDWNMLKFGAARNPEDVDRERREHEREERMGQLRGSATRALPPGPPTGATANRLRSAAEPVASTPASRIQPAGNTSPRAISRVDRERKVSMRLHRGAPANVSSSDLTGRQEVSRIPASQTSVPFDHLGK

The structures appear in SMILES notation.

What is called IC50 is the concentration that gives 50% inhibition. The low end stands for greater potency, the high end for weaker potency.

`O=C1NC(NCC23CC4CC(CC(C4)C2)C3)=N/C1=C\c1ccc2ncsc2c1`: the IC50 was 3700 nM in assay [1]; more than 10000 nM in assay [2]; 37 nM in assay [3]; 1480 nM in assay [4]; more than 10000 nM in assay [5]; more than 10000 nM in assay [6].
Regarding `O=C1NC(N[C@@H]2CCC[C@@H]2O)=N/C1=C\c1ccc2ncsc2c1` (racemic), the IC50 in assay [1] is 448 nM; in assay [2] it was more than 10000 nM; in assay [4], 537 nM; in assay [5], more than 10000 nM; in assay [6], 1210 nM; in assay [7], more than 10 µM.
For the compound `NC[C@H](NC1=N/C(=C\c2ccc3ncsc3c2)C(=O)N1)c1ccccc1`, the figures for the IC50 in assay [2] and in assay [5] were 2340 nM and 1110 nM, respectively.
Consider `O=C1NC(NC2C3CC4CC(C3)CC2C4)=N/C1=C\c1ccc2ncsc2c1` (stereo not drawn), for which the IC50 in assay [1] was 127 nM; in assay [2], more than 10000 nM; in assay [3], 19 nM; in assay [4], 1210 nM; in assay [5], 4760 nM; in assay [6], 573 nM. The compound further showed an IC50 in assay [7] of more than 10 µM.
As for `CC[C@@H](CO)NC1=N/C(=C\c2ccc3ncsc3c2)C(=O)N1`, the IC50 in assay [1] was 3160 nM; in assay [2] it was more than 10000 nM; in assay [3], 474 nM; in assay [4], 1600 nM; in assay [5], more than 10000 nM; in assay [6], 1730 nM. The IC50 in assay [7] was more than 10 µM.
For the compound `O=C1NC(NCc2cccnc2)=N/C1=C\c1ccc2ncsc2c1`, the IC50 was 1380 nM in assay [1]; more than 10000 nM in assay [2]; 53 nM in assay [3]; 716 nM in assay [4]; 2840 nM in assay [5]; 2010 nM in assay [6]. The compound further showed an IC50 in assay [7] of more than 10 µM.
For the compound `Cn1ccc(NC2=N/C(=C\c3ccc4ncsc4c3)C(=O)N2)n1`, the IC50 is 4160 nM in assay [1]; more than 10000 nM in assay [2]; 111 nM in assay [3]; 201 nM in assay [4]; 2580 nM in assay [5]; 1130 nM in assay [6]. Also, the IC50 in assay [7] is more than 10 µM.
Consider `O=C1NC(NC23CC4CC(CC(F)(C4)C2)C3)=N/C1=C\c1ccc2ncsc2c1`, for which the IC50 in assay [2] was found to be 146 nM; in assay [4], 194 nM; in assay [5], 169 nM; in assay [7], 0.612 µM.
For `O=C1NC(Nc2ccc(F)cc2)=N/C1=C\c1ccc2ncsc2c1`, the IC50 was more than 10000 nM in assay [2]; 407 nM in assay [3]; 1820 nM in assay [4]; more than 10000 nM in assay [5]; 743 nM in assay [6]; more than 10 µM in assay [7].
In the case of `COC12CC3CC(CC(NC4=N/C(=C\c5ccc6ncsc6c5)C(=O)N4)(C3)C1)C2`, the 50% inhibitory concentration (IC50) in assay [1] was 284 nM; in assay [2] it was 304 nM; in assay [4], 284 nM; in assay [5], 455 nM; in assay [7], 1.76 µM.
`CN1CCN(c2ccc(NC3=N/C(=C\c4ccc5ncsc5c4)C(=O)N3)cc2)CC1`: the IC50 in assay [1] was 244 nM; in assay [2] it was more than 10000 nM; in assay [3], 28 nM; in assay [4], 1060 nM; in assay [5] it was 999 nM; in assay [7], 3.43 µM.
As to `O=C1NC(NC2CCC(F)(F)CC2)=N/C1=C\c1ccc2ncsc2c1`, the IC50 in assay [1] is 1970 nM; in assay [2], more than 10000 nM; in assay [4], 467 nM; in assay [5], more than 10000 nM; in assay [6], 455 nM; in assay [7], more than 10 µM.
Regarding `O=C1NC(NC2CCCCC(F)(F)C2)=N/C1=C\c1ccc2ncsc2c1` (racemic), the IC50 in assay [1] stood at 174 nM; in assay [2], 602 nM; in assay [5] it was 1360 nM; in assay [7], 0.42 µM.
Consider `CS(=O)(=O)NC12CC3CC(CC(NC4=N/C(=C\c5ccc6ncsc6c5)C(=O)N4)(C3)C1)C2`, for which the IC50 was determined as 233 nM in assay [1]; 1540 nM in assay [2]; 1020 nM in assay [4]; 511 nM in assay [5]; 5.81 µM in assay [7].
Take `NC[C@@H](NC1=N/C(=C\c2ccc3ncsc3c2)C(=O)N1)c1ccccc1`: the figures for the IC50 in assay [2] and in assay [5] were 2520 nM and 102 nM, respectively.
In the case of `COc1nc(C)ccc1NC1=N/C(=C\c2ccc3ncsc3c2)C(=O)N1`, the IC50 in assay [2] is more than 10000 nM; in assay [4] it was more than 10000 nM; in assay [5], 8970 nM; in assay [6], 1870 nM; in assay [7], more than 10 µM.
As to `CNCC(NC1=N/C(=C\c2ccc3ncsc3c2)C(=O)N1)c1ccccc1` (racemic), the IC50 is 274 nM in assay [1]; 2010 nM in assay [2]; 30 nM in assay [3]; 227 nM in assay [5]; 6.35 µM in assay [7].
For the compound `O=C1NC(N[C@H]2CC[C@H](O)CC2)=N/C1=C\c1ccc2ncsc2c1`, the IC50 turned out to be 1770 nM in assay [1]; 4950 nM in assay [2]; 98 nM in assay [3]; 392 nM in assay [4]; 9620 nM in assay [5]; 625 nM in assay [6]. The IC50 in assay [7] is more than 10 µM.
As for `CN1CCN(c2ncc(NC3=N/C(=C\c4ccc5ncsc5c4)C(=O)N3)cn2)CC1`, the IC50 was 294 nM in assay [1]; more than 10000 nM in assay [2]; 143 nM in assay [3]; 1920 nM in assay [4]; 1190 nM in assay [5]; 175 nM in assay [6]. The IC50 in assay [7] is more than 10 µM.
Consider `O=C1NC(N[C@@H]2CCOC2)=N/C1=C\c1ccc2ncsc2c1`, for which the IC50 in assay [1] is 2780 nM; in assay [2], more than 10000 nM; in assay [3], 404 nM; in assay [4], 747 nM; in assay [5], more than 10000 nM; in assay [7] it was more than 10 µM.
Consider `O=C1NC(NC23CC4CC(CC(O)(C4)C2)C3)=N/C1=C\c1ccc2ncsc2c1`, for which the IC50 in assay [2] was determined as 332 nM; in assay [4], 215 nM; in assay [5], 317 nM; in assay [7] it was 1.1 µM.
On to `O=C1NC(Nc2cccnc2)=N/C1=C\c1ccc2ncsc2c1`, for which the IC50 was 1330 nM in assay [1]; more than 10000 nM in assay [2]; 84 nM in assay [3]; 201 nM in assay [4]; more than 10000 nM in assay [5]; more than 10 µM in assay [7].
Consider `O=C1NC(N[C@H]2CCOC2)=N/C1=C\c1ccc2ncsc2c1`, for which the half-inhibitory concentration (IC50) in assay [1] is 1040 nM; in assay [2], more than 10000 nM; in assay [3], 398 nM; in assay [4], 405 nM; in assay [5] it was 6570 nM; in assay [7] it was more than 10 µM.
Regarding `O=C1NC(N[C@@H]2CCC[C@H]2O)=N/C1=C\c1ccc2ncsc2c1` (racemic), the half-maximal inhibitory concentration (IC50) was 553 nM in assay [1]; more than 10000 nM in assay [2]; 224 nM in assay [4]; more than 10000 nM in assay [5]; 472 nM in assay [6]; more than 10 µM in assay [7].
For `NCC(NC1=N/C(=C\c2ccc3ncsc3c2)C(=O)N1)c1ccccc1` (stereo not drawn), the IC50 turned out to be 943 nM in assay [2] and 616 nM in assay [5].
As for `O=C1NC(NC23CC4CC(CC(NC(=O)C5CC5)(C4)C2)C3)=N/C1=C\c1ccc2ncsc2c1`, the IC50 in assay [1] came to 270 nM; in assay [2], 1450 nM; in assay [4], 658 nM; in assay [5] it was 366 nM; in assay [7] it was 2.27 µM.
In the case of `O=C1NC(NC23CC4CC(CC2C4)C3)=N/C1=C\c1ccc2ncsc2c1`, the IC50 came out at 3210 nM in assay [2], 114 nM in assay [4], 855 nM in assay [5] and 2.43 µM in assay [7].
`CC(=O)NC12CC3CC(C1)CC(NC1=N/C(=C\c4ccc5ncsc5c4)C(=O)N1)(C3)C2`: the IC50 turned out to be 263 nM in assay [1]; 610 nM in assay [2]; 610 nM in assay [4]; 663 nM in assay [5]; 1.2 µM in assay [7].
Turning to `CN(C)C12CC3CC(CC(NC4=N/C(=C\c5ccc6ncsc6c5)C(=O)N4)(C3)C1)C2`, the IC50 amounted to 411 nM in assay [1]; 5010 nM in assay [2]; 1800 nM in assay [4]; 1330 nM in assay [5]; 1.48 µM in assay [7].

Values taken from ChEMBL document CHEMBL5360622, “Leucettinibs, a Class of DYRK/CLK Kinase Inhibitors Inspired by the Marine Sponge Natural Product Leucettamine B” (J Med Chem, 2023).
